Our source for the solubility, GI50 and Kd values is ChEMBL document CHEMBL4145641, “Identification of Thiourea-Based Inhibitors of the B-Cell Lymphoma 6 BTB Domain via NMR-Based Fragment Screening and Computer-Aided Drug Design” (J Med Chem, 2018).

Series [1] is described as follows: Solubility in aqueous solution containing 1% DMSO. Type of series: physicochemical.
Series [2] is described as follows: Growth inhibition of human OCI-Ly1-B50 cells incubated for 48 hrs by cell-titer-blue dye based assay. Type of series: functional.
The test system of another series is OCI-Ly7. The series is described as follows: Growth inhibition of human OCI-LY7 cells incubated for 48 hrs by cell-titer-blue dye based assay. Format: functional. The following applies: OCI-Ly7, 48 h.
The test system of the next series is SU-DHL-6. As to the kind of experiment: Growth inhibition of human SUDHL6 cells incubated for 48 hrs by cell-titer-blue dye based assay. Type of series: functional. To be noted: SU-DHL-6, 48 h.
For another series, the system named is OCI-Ly1. The series is described as follows: Growth inhibition of human OCI-LY1 cells incubated for 48 hrs by cell-titer-blue dye based assay. Format: functional. To be noted: OCI-Ly1, 48 h.
For another series, the system named is Toledo. The series is described as follows: Growth inhibition of human Toledo cells incubated for 48 hrs by cell-titer-blue dye based assay. Format: functional.
The next series deals with KARPAS-422. As to the kind of experiment: Growth inhibition of human KARPAS422 cells incubated for 48 hrs by cell-titer-blue dye based assay. To be noted: KARPAS-422, 48 h. Type of series: functional.
For another series, the system named is SUD4. The series is described as follows: Growth inhibition of human SUDHL4 cells incubated for 48 hrs by cell-titer-blue dye based assay. Format: functional. To be noted: SU-DHL-4, 48 h.
Series [3] deals with B-cell lymphoma 6 protein (Homo sapiens, UniProt P41182). The series is described as follows: Binding affinity to fluorescently labeled recombinant BCL6 BTB domain (unknown origin) expressed in Escherichia coli BL21 (DE3) incubated for 10 mins by microscale thermophoresis method. Background: In MST a laser heats a spot of the sample, and binding alters the fluorescence response.

`CCOC(=O)CNC(=O)Cn1cc(CN2CCN(C)CC2)c2ccc(NC(=S)NCCc3c[nH]c4ccccc34)cc21` displayed a solubility in [1] greater than 1000 µM.

As to `CN1CCN(Cc2cn(CC(=O)N3CCOCC3)c3cc(NC(=S)NCCc4c[nH]c5ccccc45)ccc23)CC1`, the concentration for 50% growth inhibition (GI50) is greater than 500 µM in series [2]; 193 µM in the series on OCI-Ly7; greater than 500 µM in the series on SU-DHL-6; greater than 500 µM in the series with OCI-Ly1; greater than 500 µM with Toledo; greater than 500 µM in the series on KARPAS-422. The concentration for 50% growth inhibition (GI50) in the series on SUD4 was greater than 500 µM. In series [1], this compound came in with a solubility greater than 1000 µM.

Take `COC(=O)Cn1cc(CN2CCN(C)CC2)c2ccc(NC(=S)NCCc3c[nH]c4ccccc34)cc21`: the GI50 is greater than 500 µM in series [2]; greater than 500 µM in the series with OCI-Ly7; 100 µM with SU-DHL-6; greater than 500 µM with OCI-Ly1; greater than 500 µM in the series with Toledo; greater than 500 µM in the series with KARPAS-422. For the same compound, in the series with SUD4, the GI50 was greater than 500 µM.

On to `CN1CCN(Cc2cn(CC(=O)N3CCCCC3)c3cc(NC(=S)NCCc4c[nH]c5ccccc45)ccc23)CC1`, for which the GI50 was greater than 500 µM in [2]; 33 µM in the series on OCI-Ly7; 60 µM in the series with SU-DHL-6; 100 µM in the series on OCI-Ly1; greater than 500 µM in the series with Toledo; greater than 500 µM in the series with KARPAS-422. This compound gave a GI50 with SUD4 of 103 µM. The same compound gave a solubility in series [1] greater than 1000 µM.

Turning to `CC[C@H](C)[C@H](NC(=O)[C@H](CCC(=O)O)NC(=O)[C@H](Cc1cnc[nH]1)NC(=O)[C@H](NC(=O)[C@H](CO)NC(=O)[C@H](CCCNC(=N)N)NC(=O)CNC(=O)[C@H](C)NC(=O)[C@H](CCC(=O)O)NC(=O)[C@H](CCCCN)NC(=O)[C@@H](NC(=O)[C@@H](NC(=O)[C@H](C)NC(=O)[C@@H](NC(=O)[C@@H](N)CC(C)C)C(C)C)[C@@H](C)O)C(C)C)[C@@H](C)CC)C(=O)N1CCC[C@@H]1C(=O)N[C@@H](CCCNC(=N)N)C(=O)O`, in series [3], the dissociation constant Kd was found to be 30 µM.

As to `CN1CCN(Cc2cn(CC(=O)NCC(=O)O)c3cc(NC(=S)NCCc4c[nH]c5ccccc45)ccc23)CC1`, the GI50 (in series [2]; with OCI-Ly7; in the series with SU-DHL-6; with OCI-Ly1; with Toledo; in the series on KARPAS-422) was greater than 500 µM in each case. Moreover, in the series on SUD4, the GI50 was greater than 500 µM. The compound also gave a solubility in series [1] greater than 1000 µM.

For `CC(C)NC(=O)Cn1cc(CN2CCN(C)CC2)c2ccc(NC(=S)NCCc3c[nH]c4ccccc34)cc21`, the GI50 (in series [2]; in the series on OCI-Ly7; in the series on SU-DHL-6; in the series on OCI-Ly1; with Toledo; with KARPAS-422) was greater than 500 µM each time. Moreover, the GI50 in the series with SUD4 is greater than 500 µM. This compound yielded a solubility in series [1] greater than 1000 µM.

Turning to `O=C(O)CNC(=O)Cn1ccc2ccc(NC(=S)NCCc3c[nH]c4ccccc34)cc21`, the concentration for 50% growth inhibition (GI50) (in series [2]; with OCI-Ly7; with SU-DHL-6; in the series with OCI-Ly1; in the series with Toledo; with KARPAS-422) was greater than 500 µM throughout. Moreover, the GI50 in the series on SUD4 was greater than 500 µM.

As for `CN1CCN(Cc2cn(CC(=O)N3CCN(C)CC3)c3cc(NC(=S)NCCc4c[nH]c5ccccc45)ccc23)CC1`, in series [1], the solubility is greater than 1000 µM.

`CCN(CC)C(=O)Cn1cc(CN2CCN(C)CC2)c2ccc(NC(=S)NCCc3c[nH]c4ccccc34)cc21`: the solubility in series [1] is greater than 1000 µM.

Consider `CC1CN(C(=O)Cn2cc(CN3CCN(C)CC3)c3ccc(NC(=S)NCCc4c[nH]c5ccccc45)cc32)CCO1` (racemic), for which the GI50 was greater than 500 µM in [2]; 116 µM in the series on OCI-Ly7; greater than 500 µM with SU-DHL-6; greater than 500 µM with OCI-Ly1; greater than 500 µM in the series with Toledo; greater than 500 µM in the series on KARPAS-422. The GI50 in the series with SUD4 is greater than 500 µM. Further, in series [1], the solubility was greater than 1000 µM.

Usually solubility stands for how much of the substance goes into solution per volume. A lower solubility goes with little dissolved substance. By GI50 is commonly meant the concentration giving 50% growth inhibition. Read a low GI50 as more potent growth inhibition. For orientation: Kd means the concentration at which binding is half-saturated.
